The NIST ThermoML archive (doi:10.1016/j.tca.2013.08.007)

Assay: mn = molality of the nth substance listed, in mol/kg
Conditions: 101 kPa, Liquid, Vibrating tube method

[Cl-].[Na+] [sodium chloride] + O
mass density [kg/m3]
Conditions	m1 = 0.2	m1 = 0.4	m1 = 0.6	m1 = 0.8	m1 = 1	m1 = 1.5
288.15 K	1007.43	1015.66	1023.65	1031.47	1039.16	1058.09
298.15 K	1005.16	1013.14	1020.96	1028.64	1036.19	1054.58
308.15 K	1002.07	1009.91	1017.59	1025.13	–	1050.69
318.15 K	998.17	1005.91	–	1020.82	1028.35	1046.38
